Measurements reported in patent publication US10227349B2, “Pyrazolo[1,5-a]pyrimidine compound” (Eisai R&D Management Co., Ltd., priority 2016, dated 2019).

Columns and labels:
PAR2 [1] = target: T1, PAR2 (Mus musculus, UniProt P55086); experiment: Measurement of PAR2 agonist (SLIGRL-NH2)-induced salivation in mouse; type: in vivo; settings: C57BL/6J male mice, 0.3 mg/mL solution 10 mL/kg orally, 60 min before SLIGRL-NH2 i.p., saliva collected 10 min
T1 construct: orally administered to C57BL/6J male mice (Charles River), 6-10 weeks of age; tissue Charles River; host or cells: Living C57BL/6J male mice (in vivo; saliva secretion)
T1 sequence (P55086 26-399): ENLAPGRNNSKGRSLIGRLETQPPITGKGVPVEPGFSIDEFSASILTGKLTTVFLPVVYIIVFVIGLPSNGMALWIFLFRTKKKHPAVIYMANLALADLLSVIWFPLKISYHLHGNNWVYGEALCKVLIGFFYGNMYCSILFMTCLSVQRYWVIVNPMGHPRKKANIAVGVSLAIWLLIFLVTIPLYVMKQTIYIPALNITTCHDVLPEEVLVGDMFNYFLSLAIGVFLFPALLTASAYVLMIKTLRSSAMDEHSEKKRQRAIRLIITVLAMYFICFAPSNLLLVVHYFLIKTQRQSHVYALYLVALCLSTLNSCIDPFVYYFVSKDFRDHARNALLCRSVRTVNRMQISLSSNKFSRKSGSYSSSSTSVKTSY
Description: The test compound was added to a 0.5% carboxymethyl cellulose solution to which 2% DMSO was added, so as to have the final concentration of 0.3 mg/mL, thereby preparing an administration solution containing the test compound. The administration solution containing the test compound (10 mL/kg) was orally administered to C57BL/6J male mice (Charles River), 6-10 weeks of age, using an oral sonde and a syringe. Forty-five minutes after the administration of the test compound, 10 mL/kg of a 20% (w/v) urethane solution was intraperitoneal administered to the mice which were then anesthetized. Sixty minutes after the administration of the test compound, 10 mL/kg of a 0.1 mg/mL SLIGRL-NH2 (SEQ ID NO: 2) solution was intraperitoneally administered as the PAR2 agonist and a cotton ball was immediately placed in the oral cavity of the mouse to collect the saliva. Ten minutes after the administration of the PAR2 agonist, the cotton ball was removed and weighed to measure the amount of saliva secreted.
Note that Reference Example 1 in Table 4 is Compound (XIX). Additionally, Comparative Compound in Table 4 is Compound (XX).

PAR2 [2] = target: T2, PAR2 (Homo sapiens, UniProt P55085); experiment: Intracellular calcium concentration measurement (trypsin-induced calcium elevation, FDSS6000); type: cell-based; settings: HEK293 cells, trypsin 5 U/mL as agonist, test compound added 30 min before measurement; read-out: Inhibitory activity on intracellular calcium elevation (IC50 (nM))
T2 construct: Human embryonic kidney cell line HEK293 cells cultured using DMEM culture medium; endogenous in cells; host or cells: HEK293
T2 sequence (P55085 26-397): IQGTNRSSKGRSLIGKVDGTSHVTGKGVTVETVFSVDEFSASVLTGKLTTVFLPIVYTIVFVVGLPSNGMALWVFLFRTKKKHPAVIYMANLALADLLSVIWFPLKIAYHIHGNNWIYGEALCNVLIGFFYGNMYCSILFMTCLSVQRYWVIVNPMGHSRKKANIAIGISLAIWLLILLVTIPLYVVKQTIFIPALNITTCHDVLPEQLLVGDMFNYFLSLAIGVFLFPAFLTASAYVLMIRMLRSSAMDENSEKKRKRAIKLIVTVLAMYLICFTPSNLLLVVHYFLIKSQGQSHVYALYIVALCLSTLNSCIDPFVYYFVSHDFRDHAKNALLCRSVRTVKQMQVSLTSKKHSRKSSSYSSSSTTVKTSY
Excerpt: In the present specification, examples of the measurement method for the PAR2 inhibitory activity include measurement method for a concentration elevation of intracellular calcium; measurement method for a production increase of intracellular inositol trisphosphate; measurement method for an increase in intracellular protein phosphorylation by protein kinase C and MAP kinase; and measurement method for a production amount or a release amount of inflammation-related physiologically active substances such as cytokine, chemokine, prostaglandin and nitric monoxide. Examples of the measurement method for an elevation of intracellular calcium concentration include a method wherein a calcium-binding fluorescent probe is allowed to be incorporated in advance into a cultured cell line or an animal-derived isolated cell having PAR2, or a cell in which PAR2 is artificially expressed, a protease having the PAR2 activity function such as trypsin or a PAR2 agonist (synthetic peptides such as SLIGKV-NH2 (SEQ ID NO: 1) and SLIGRL-NH2 (SEQ ID NO: 2) is added to activate PAR2 whereby fluctuating intracellular calcium concentrations are detected as changes in the fluorescent signal. Alternatively, it is also possible to measure an intracellular calcium concentration by determining the quantity of a fluorescence intensity produced in proportion to the calcium concentration using a calcium-binding luminescent protein overexpressing cell line such as Aequorin. Specifically, examples include the methods described in Test Examples of the present specification.
Human embryonic kidney cell line HEK293 cells cultured using DMEM culture medium (Invitrogen) with 3% fetal bovine serum (3% FBS)-added was prepared to have a concentration of 2×10^5 cells/mL, and plated in a type I collagen-coated 384-well black plate (clear bottom) (Greiner) so as to be 25 μL/well and cultured in a CO2 incubator overnight. FLIPR Calcium Assay Kit (Molecular Devices) prepared with Hanks-20 mM Hepes buffer (pH 7.4) was added to the cells so as to be 25 μL/well and cultured in the CO2 incubator for 1 hour. Trypsin (SIGMA-ALDRICH, catalog number: T8816, Enzyme Commission Number 3.4.21.4) prepared so as to be 5 U/mL as final concentration (BAEE unit) with Hanks-20 mM Hepes buffer (pH 7.4) was added to a 384-well deep well polypropylene plate (Greiner) to be an agonist reagent plate. Thirty minutes before the measurement using FDSS6000 (Hamamatsu Photonics K.K.), a test compound prepared with Hanks-20 mM Hepes buffer (pH 7.4) was added to the cell so as to be 8 μL/well. The cell plate to which the test compound was added and the reagent plate were set on FDSS6000, 22 μL/well of the agonist solution was added from the reagent plate, and the change in intracellular calcium concentration was measured with a CCD camera. The measurement was carried out at 37° C. for 120 seconds and the addition of reagent from the reagent plate to the cell plate was carried out using a built-in 384-well automatic dispenser of FDSS6000.
Note that Reference Example 1 in Table 3 is the compound represented by formula (XIX) synthesized in the above Reference Example 1 (hereinafter, also referred to as Compound (XIX)). Additionally, the “Comparative Compound” in Table 3 is the compound described in Patent Literature 4 represented by the following formula (XX) (I-343; hereinafter, also referred to as Compound (XX)).

| Inhibitory activity on the PAR2-dependent saliva secretion (%) (PAR2 [1]) | IC50 (PAR2 [2]) | SMILES |
| --- | --- | --- |
| 92.2% | 3.46 nM | CO[C@H]1CN(C(=O)c2cc3nc(-c4cc(F)c(Cl)c(F)c4)cc(N(C)c4c(C)cccc4F)n3n2)CC[C@H]1CC(=O)O [Example 10, 2-((3R,4S)-1-(5-(4-chloro-3,5-difluorophenyl)-7-((2-fluoro-6-methylphenyl)(methyl)amino)pyrazolo[1,5-a]pyrimidine-2-carbonyl)-3-methoxypiperidin-4-yl)acetic acid] |
| 95.9% | 8.27 nM | C[C@@H](c1ccccc1)N(C)c1cc(-c2cc(F)c(F)c(F)c2)nc2cc(C(=O)N3CCC(CC(=O)O)CC3)nn12 [Reference Example 1, (S)-2-(1-(7-(methyl(1-phenylethyl)amino)-5-(3,4,5-trifluorophenyl)pyrazolo[1,5-a]pyrimidine-2-carbonyl)piperidin-4-yl)acetic acid, reference compound] |
